Measurements as given in patent US9156816B2 (priority 2010, dated 2015).

Tests used:
[1] = tested on: tomato late blight pathogen (Phytophthora infestans); assay: whole plant or invertebrate; format: in vivo; conditions: 96 h, read-out: control value
Pythium aphanidermatum = assay: Antimicrobial test (mycelia growth inhibition); format: cell-based; conditions: compound concentration of 1 ppm, PSY medium, 25° C., days 3 to 7 of culturing, read-out: mycelia growth inhibition rate
Description: The compound according to the present invention was dissolved in dimethylsulfoxide and diluted to double the prescribed concentration in a 96-well microplate using PSY medium to obtain a drug solution. On the other hand, a diluted dimethylsulfoxide solution was prepared using PSY medium for use as an untreated group.
A suspension of liquid-cultured test microorganisms (Pythium aphanidermatum) was mixed with an equal volume of the drug solution and cultured in a dark location at 25° C. Mycelia growth was observed on days 3 to 7 of culturing to determine mycelia growth inhibition rates.

Pythium ultimum = assay: Cucumber damping-off (PU) control test; format: in vivo; conditions: Globisporangium ultimum, 168 h, soil irrigated with 30 ml emulsion at active ingredient concentration of 100 ppm, ratio of healthy seedlings on day 7 after planting vs untreated group
Description: 40 ml of sterile soil were placed in plastic cups followed by leveling the surface of the soil. The soil was then irrigated with 30 ml of the aforementioned emulsion of Preparation Example 2 at an active ingredient concentration of 100 ppm. Following irrigation, cucumbers (variety: Sagami Hanjiro) were planted in the soil and covered with 20 ml of contaminated soil (containing Pythium ultimum) from above. The cups were then placed in plastic bags and allowed to stand undisturbed for 3 days in a constant temperature room at 25° C. (dark location […]). Next, the plants were removed from the bags and held in a constant temperature room at 25° C. using a light-dark cycle of 12 hours. On day 7 after planting, the ratios of healthy seedlings were compared between an untreated group and treated group to calculate control effects (control values).

Compound | pest or weed control at 100 µg/mL [1] [%] | inhibition at 1 ppm (Pythium aphanidermatum) [%] | pest or weed control at 100 ppm (Pythium ultimum) [%]
COCCOC(C)(OCCOC)C(=O)Nc1cccc(CO/N=C(/c2ccccc2)c2nnnn2C)n1 [a-32] | ≥ 70 |  | 
Cn1nnnc1/C(=N\OCc1cccc(NC(=O)OCC2(C)COC(C)(C)OC2)n1)c1ccccc1 [c-3] | ≥ 70 | ≥ 50 | 
CCOC(CC(=O)Nc1cccc(CO/N=C(/c2ccccc2)c2nnnn2C)n1)OCC [a-6] | ≥ 70 | ≥ 50 | ≥ 50
Cn1nnnc1/C(=N\OCc1cccc(NC(=O)C2(C)OCCCCO2)n1)c1ccccc1 [a-25] | ≥ 70 | ≥ 50 | ≥ 50
CCOC(OCC)C(=O)Nc1cccc(CO/N=C(/c2ccc(F)c(C)c2)c2nnnn2C)n1 [e-2] | ≥ 70 | ≥ 50 | 
COC(CC(C)OC(=O)Nc1cccc(CO/N=C(/c2ccccc2)c2nnnn2C)n1)OC (stereo not shown) [c-6] | ≥ 70 | ≥ 50 | ≥ 50
Cn1nnnc1/C(=N\OCc1cccc(NC(=O)OCC2CO2)n1)c1ccccc1 (stereo not drawn) [d-5] | ≥ 70 |  | 
CCCOC(C)(OCCC)C(=O)Nc1cccc(CO/N=C(/c2ccccc2)c2nnnn2C)n1 [a-29] | ≥ 70 | ≥ 50 | ≥ 50
Cn1nnnc1/C(=N\OCc1cccc(NC(=O)OC2CCC3(CC2)OCCO3)n1)c1ccccc1 [c-5] | ≥ 70 | ≥ 50 | ≥ 50
CCOCC(CCOC(=O)Nc1cccc(CO/N=C(/c2ccccc2)c2nnnn2C)n1)OCC (stereo not drawn) [d-18] | ≥ 70 | ≥ 50 | ≥ 50
CC(C(=O)Nc1cccc(CO/N=C(/c2ccccc2)c2nnnn2C)n1)C1(C)OCCO1 (stereo not shown) [a-13] | ≥ 70 |  | 
CCOC(OCC)C(C)C(=O)Nc1cccc(CO/N=C(/c2ccccc2)c2nnnn2C)n1 (stereo not shown) [a-20] | ≥ 70 | ≥ 50 | ≥ 50
CCOC1(OC(=O)Nc2cccc(CO/N=C(/c3ccccc3)c3nnnn3C)n2)CC1 [d-2] | ≥ 70 |  | 
CCOC(OCC)C(=O)Nc1ccc(Cl)c(CO/N=C(/c2ccccc2)c2nnnn2C)n1 [e-3] | ≥ 70 | ≥ 50 | 
CCOC(C)(OCC(F)(F)F)C(=O)Nc1cccc(CO/N=C(/c2ccccc2)c2nnnn2C)n1 (stereo not shown) [a-30] | ≥ 70 | ≥ 50 | ≥ 50
COCCC(=O)Nc1cccc(CO/N=C(/c2ccccc2)c2nnnn2C)n1 [b-1] | ≥ 70 | ≥ 50 | 
COCCC(C)OC(=O)Nc1cccc(CO/N=C(/c2ccccc2)c2nnnn2C)n1 (stereo not drawn) [d-14] | ≥ 70 | ≥ 50 | ≥ 50
Cn1nnnc1/C(=N\OCc1cccc(NC(=O)OCC2(C)COCOC2)n1)c1ccccc1 [c-2] | ≥ 70 | ≥ 50 | 
CC(OC(=O)Nc1cccc(CO/N=C(/c2ccccc2)c2nnnn2C)n1)C1OCCCO1 (stereo not shown) [c-11] | ≥ 70 | ≥ 50 | 
CCCOC(OCCC)C(=O)Nc1cccc(CO/N=C(/c2ccccc2)c2nnnn2C)n1 [a-9] | ≥ 70 | ≥ 50 | ≥ 50
Cn1nnnc1/C(=N\OCc1cccc(NC(=O)CC2(C)OCCO2)n1)c1ccccc1 [a-16] | ≥ 70 |  | 
COC(CCC(=O)Nc1cccc(CO/N=C(/c2ccccc2)c2nnnn2C)n1)OC [a-17] | ≥ 70 | ≥ 50 | ≥ 50
Cn1nnnc1/C(=N\OCc1cccc(NC(=O)OC2(C)CCOCC2)n1)c1ccccc1 [d-6] | ≥ 70 | ≥ 50 | 
Cn1nnnc1/C(=N\OCc1cccc(NC(=O)CC2OCC(C)(C)CO2)n1)c1ccccc1 [a-15] | ≥ 70 | ≥ 50 | 

Compound | pest or weed control at 100 µg/mL [1] [%] | inhibition at 1 ppm (Pythium aphanidermatum) [%] | pest or weed control at 100 ppm (Pythium ultimum) [%]
Cn1nnnc1/C(=N\OCc1cccc(NC(=O)OCCC2OCC(C)(C)CO2)n1)c1ccccc1 [c-1] | ≥ 70 | ≥ 50 | ≥ 50
CCOCC(COC(=O)Nc1cccc(CO/N=C(/c2ccccc2)c2nnnn2C)n1)OCC (stereo not drawn) [d-17] | ≥ 70 | ≥ 50 | ≥ 50
CCOC(C)(OCC)C(=O)Nc1cccc(CO/N=C(/c2ccccc2)c2nnnn2C)n1 [a-18] | ≥ 70 |  | ≥ 50
COC(CC(=O)Nc1cccc(CO/N=C(/c2ccccc2)c2nnnn2C)n1)OC [a-2, (Z)-(1-methyl-1H-tetrazol-5-yl)phenylmethanone-o-[2-(2,2-dimethoxyethanecarbonylamino)pyridin-6-ylmethyl]oxime] | ≥ 70 | ≥ 50 | ≥ 50
CC(C)OC(OC(C)C)C(=O)Nc1cccc(CO/N=C(/c2ccccc2)c2nnnn2C)n1 [a-8] | ≥ 70 |  | ≥ 50
Cn1nnnc1/C(=N\OCc1cccc(NC(=O)OC2(C)CCSCC2)n1)c1ccccc1 [d-7] | ≥ 70 |  | 
CCOC(OCC)C(C)(C)C(=O)Nc1cccc(CO/N=C(/c2ccccc2)c2nnnn2C)n1 [a-21] | ≥ 70 |  | ≥ 50
Cn1nnnc1/C(=N\OCc1cccc(NC(=O)C2(C)OCCO2)n1)c1ccccc1 [a-5] |  | ≥ 50 | 
CC1COC(CC(=O)Nc2cccc(CO/N=C(/c3ccccc3)c3nnnn3C)n2)O1 (stereo not shown) [a-10] | ≥ 70 | ≥ 50 | 
COCCCOC(=O)Nc1cccc(CO/N=C(/c2ccccc2)c2nnnn2C)n1 [d-12] | ≥ 70 | ≥ 50 | 
CCOC(OCC)C(=O)Nc1cccc(CO/N=C(/c2cccc(F)c2)c2nnnn2C)n1 [e-1] | ≥ 70 | ≥ 50 | 
COC(C)(OC)C(=O)Nc1cccc(CO/N=C(/c2ccccc2)c2nnnn2C)n1 [a-19] | ≥ 70 | ≥ 50 | 
COCCC(C)(C)OC(=O)Nc1cccc(CO/N=C(/c2ccccc2)c2nnnn2C)n1 [d-10] | ≥ 70 |  | ≥ 50
Cn1nnnc1/C(=N\OCc1cccc(NC(=O)OC(C)(C)C2OCCCO2)n1)c1ccccc1 [c-12] | ≥ 70 | ≥ 50 | 
CC1OC(CC(=O)Nc2cccc(CO/N=C(/c3ccccc3)c3nnnn3C)n2)OC1C (stereo not shown) [a-12] | ≥ 70 | ≥ 50 | 
COC(C)C(=O)Nc1cccc(CO/N=C(/c2ccccc2)c2nnnn2C)n1 (stereo not shown) [b-4] |  | ≥ 50 | 
CCOCC(C)(COCC)C(=O)Nc1cccc(CO/N=C(/c2ccccc2)c2nnnn2C)n1 [b-5] |  | ≥ 50 | 
CCC1COC(CC(=O)Nc2cccc(CO/N=C(/c3ccccc3)c3nnnn3C)n2)O1 (stereo not shown) [a-11] | ≥ 70 | ≥ 50 | 
COCCC(C)C(=O)Nc1cccc(CO/N=C(/c2ccccc2)c2nnnn2C)n1 (stereo not shown) [b-9] |  |  | ≥ 50
COCCCCC(=O)Nc1cccc(CO/N=C(/c2ccccc2)c2nnnn2C)n1 [b-11] |  |  | ≥ 50
Cn1nnnc1/C(=N\OCc1cccc(NC(=O)C2(C)OCCCO2)n1)c1ccccc1 [a-24, (Z)-(1-methyl-1H-tetrazol-5-yl)phenylmethanone-o-[2-(2-methyl-1,3-dioxan-2-yl-carbonylamino)pyridin-6-ylmethyl]oxime] | ≥ 70 | ≥ 50 | 
COCCCCOC(=O)Nc1cccc(CO/N=C(/c2ccccc2)c2nnnn2C)n1 [d-11] | ≥ 70 | ≥ 50 | 
CCOCCCC(C)(C)OC(=O)Nc1cccc(CO/N=C(/c2ccccc2)c2nnnn2C)n1 [d-9] | ≥ 70 | ≥ 50 | 
